In US5041567A, “Antibacterial monic acid derivatives” (Beecham Group plc, priority 1982, dated 1991):
Values after ≈ are worked out from the molar mass of the structure shown. Read-outs that look alike come from different tables or passages of the source.

Legend:
[1] = tested on: M. bovis NCTC 10131; test: microbe, parasite or virus in culture; assay type: cell-based; settings: NCTC10131, 144 h
[2] = tested on: Staph. aureus Oxford; test: MIC against veterinary bacteria in vitro; settings: Staphylococcus aureus, 18 h
Method: (§1) The activity of the compounds of the Examples against various veterinarily important bacteria, was assayed in vitro using two-fold serial dilutions in Diagnostic Sensitivity Test Agar inoculated with 10^4 organisms.

[3] = tested on: Strep. faecalis I; test: MIC against human bacteria in vitro; assay type: cell-based; settings: Enterococcus faecalis; Strep. faecalis I; 5% chocolated horse blood agar, 18 hours; read-out: MIC
[4] = tested on: Pasteurella multocida 1633; test: MIC against human bacteria in vitro; assay type: cell-based; settings: Pasteurella multocida 1633; 5% chocolated horse blood agar, 18 hours; read-out: MIC
[5] = tested on: M. suipneumoniae LABER; test: MIC against mycoplasma in vitro; assay type: cell-based; settings: Mesomycoplasma hyopneumoniae, 144 h
[6] = tested on: K. aerogenes A; test: MIC against human bacteria in vitro; assay type: cell-based; settings: Klebsiella aerogenes; K. aerogenes A; 5% chocolated horse blood agar, 18 hours; read-out: MIC
[7] = tested on: Staph. aureus B4 (pen. resistant); test: MIC against veterinary bacteria in vitro; settings: Staphylococcus aureus, 18 h
Method: as §1

[8] = tested on: Strep. dysgalactiae SPD1; test: MIC against veterinary bacteria in vitro; settings: Streptococcus dysgalactiae, SPD1, 18 h
Method: as §1

[9] = tested on: M. suipneumoniae J2206/183^b; test: MIC against mycoplasma in vitro; assay type: cell-based; settings: Mesomycoplasma hyopneumoniae, 144 h
[10] = tested on: Strep. spp. 64/848-C; test: MIC against human bacteria in vitro; assay type: cell-based; settings: Strep. spp. 64/848-C; 5% chocolated horse blood agar, 18 hours; read-out: MIC
[11] = tested on: M. hyosynoviae ATCC 25591; test: MIC against mycoplasma in vitro; assay type: cell-based; settings: 144 h; M. hyosynoviae ATCC 25591; 6 days, 37° C.; read-out: MIC
[12] = tested on: Bacillus subtilis 6633; test: MIC against human bacteria in vitro; assay type: cell-based
[13] = tested on: Bord. bronchiseptica B09; test: MIC against veterinary bacteria in vitro; settings: Bordetella bronchiseptica, B09, 18 h
Method: as §1

[14] = tested on: M. pneumoniae ATCC 15492; test: MIC against mycoplasma in vitro; assay type: cell-based; settings: Mycoplasmoides pneumoniae, ATCC15492, 144 h
[15] = tested on: Bord. bronchiseptica B08; test: MIC against veterinary bacteria in vitro; settings: Bordetella bronchiseptica, B08, 18 h
Method: as §1

[16] = tested on: M. suipneumoniae HK(2); test: MIC against mycoplasma in vitro; assay type: cell-based; settings: Mesomycoplasma hyopneumoniae, 144 h
[17] = tested on: B. subtilis ATCC 6633; test: MIC against veterinary bacteria in vitro; settings: Bacillus subtilis, ATCC6633, 18 h
Method: as §1

[18] = tested on: E. coli ESS; test: MIC against human bacteria in vitro; assay type: cell-based; settings: Escherichia coli; E. coli ESS; 5% chocolated horse blood agar, 18 hours; read-out: MIC
[19] = tested on: Strep. uberis SPU1; test: MIC against veterinary bacteria in vitro; settings: Streptococcus uberis, SPU1, 18 h
Method: as §1

[20] = tested on: S. typhimurium S18; test: MIC against veterinary bacteria in vitro; settings: Salmonella enterica, TYPHIMURIUM, 18 h
Method: as §1

[21] = tested on: Corynebacterium pyogenes CY1; test: MIC against veterinary bacteria in vitro; settings: CY1, 18 h
Method: as §1

[22] = tested on: Erysipelothrix rhusiopathiae NCTC 8163; test: MIC against veterinary bacteria in vitro; settings: Erysipelothrix rhusiopathiae, NCTC8163, 18 h
Method: as §1

[23] = tested on: M. hyorhinis ATCC 23234; test: MIC against mycoplasma in vitro; assay type: cell-based; settings: Mesomycoplasma hyorhinis, ATCC23234, 144 h

SMILES	MIC [1]	MIC [2]	MIC [3]	MIC [4]	MIC [6]	MIC [7]	MIC [8]	MIC [10]	MIC [11]	MIC [13]	MIC [15]	MIC [17]	MIC [18]	MIC [19]	MIC [20]	MIC [21]	MIC [22]	also measured
C/C(=C\c1ncc(-c2ccsc2)o1)C[C@@H]1OC[C@H](C[C@@H]2O[C@H]2[C@@H](C)[C@H](C)O)[C@@H](O)[C@H]1O [Example 20, 5-(3-Thienyl)-2-(1-normon-2-yl) oxazole A]	≤ 0.01 µg/mL	2.55 µg/mL (≈ 5.67 µM)	> 128 µg/mL	4 µg/mL (≈ 8.9 µM)	> 128 µg/mL	0.63 µg/mL (≈ 1.4 µM)	0.625 µg/mL (≈ 1.39 µM)	2 µg/mL (≈ 4.45 µM)	0.5 µg/mL (≈ 1.11 µM)	10 µg/mL (≈ 22.2 µM)	80 µg/mL (≈ 178 µM)	10 µg/mL (≈ 22.2 µM)	4 µg/mL (≈ 8.9 µM)	0.156 µg/mL (≈ 0.347 µM)	> 80 µg/mL	> 80 µg/mL	80 µg/mL (≈ 178 µM)	MIC ([5]; M. suipneumoniae LABER, 6 days, 37° C., read-out: MIC): 0.5 µg/mL (≈ 1.11 µM); MIC [9]: 1 µg/mL (≈ 2.22 µM); MIC ([12]; Bacillus subtilis 6633, 5% chocolated horse blood agar, 18 hours, read-out: MIC): 0.5 µg/mL (≈ 1.11 µM); MIC ([14]; M. pneumoniae ATCC 15492, 6 days, 37° C., read-out: MIC): 0.5 µg/mL (≈ 1.11 µM); MIC [16]: 1 µg/mL (≈ 2.22 µM); MIC ([23]; M. hyorhinis ATCC 23234, 6 days, 37° C., read-out: MIC): 0.5 µg/mL (≈ 1.11 µM)
C/C(=C\c1ncc(-c2ccccc2[N+](=O)[O-])o1)C[C@@H]1OC[C@H](C[C@@H]2O[C@H]2[C@@H](C)[C@H](C)O)[C@@H](O)[C@H]1O [Example 26, 5-o-Nitrophenyl-2-(1-normon-2-yl)oxazole A]	0.025 µg/mL (≈ 0.0512 µM)	2.5 µg/mL (≈ 5.12 µM)	> 128 µg/mL	16 µg/mL (≈ 32.8 µM)	> 128 µg/mL	2.5 µg/mL (≈ 5.12 µM)	0.625 µg/mL (≈ 1.28 µM)	2 µg/mL (≈ 4.09 µM)	0.5 µg/mL (≈ 1.02 µM)	20 µg/mL (≈ 40.9 µM)	80 µg/mL (≈ 164 µM)	0.312 µg/mL (≈ 0.639 µM)	8 µg/mL (≈ 16.4 µM)	0.156 µg/mL (≈ 0.319 µM)	> 80 µg/mL	> 80 µg/mL	> 80 µg/mL	MIC [5]: 2.5 µg/mL (≈ 5.12 µM); MIC ([9]; M. suipneumoniae J2206/183^b, 6 days, 37° C., read-out: MIC): 5 µg/mL (≈ 10.2 µM); MIC ([12]; Bacillus subtilis, 6633, 18 h): 0.25 µg/mL (≈ 0.512 µM); MIC [14]: 2.5 µg/mL (≈ 5.12 µM); MIC ([16]; M. suipneumoniae HK(2), 6 days, 37° C., read-out: MIC): 5 µg/mL (≈ 10.2 µM); MIC [23]: 2.5 µg/mL (≈ 5.12 µM)
